Measurements from patent US10323027B2, “2,3-dihydro-4H-1,3-benzoxazin-4-one derivatives as modulators of cholinergic muscarinic M1 receptor” (Takeda Pharmaceutical Company Limited, priority 2015, dated 2019).

Molecular target: T1, human M1 receptor (hCHRM1) (Homo sapiens, UniProt P11229)
T1 construct: expressed in transfected cells
T1 sequence (P11229 1-460): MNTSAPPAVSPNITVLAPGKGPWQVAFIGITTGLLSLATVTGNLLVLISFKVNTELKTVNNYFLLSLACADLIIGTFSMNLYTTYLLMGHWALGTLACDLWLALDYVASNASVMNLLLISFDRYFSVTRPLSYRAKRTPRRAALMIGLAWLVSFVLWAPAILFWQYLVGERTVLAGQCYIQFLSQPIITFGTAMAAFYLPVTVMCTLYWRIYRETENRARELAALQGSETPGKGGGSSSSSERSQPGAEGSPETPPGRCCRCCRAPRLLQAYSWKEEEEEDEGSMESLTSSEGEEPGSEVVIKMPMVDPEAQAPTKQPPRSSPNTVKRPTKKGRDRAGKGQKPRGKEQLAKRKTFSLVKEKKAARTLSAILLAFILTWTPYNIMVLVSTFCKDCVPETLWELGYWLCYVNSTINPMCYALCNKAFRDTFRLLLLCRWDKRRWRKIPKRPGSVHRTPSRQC
Experiment: Measurement of M1 receptor positive allosteric modulator (M1PAM) activity, Ca2+ fluorescence by FLIPRtetra (Experimental Example 1)
Assay type: cell-based
Conditions: for activity (%) at 10 μM: 10 μM test compound, 100% = acetylcholine 1 μM, 0% = DMSO; for EC50: inflection point of concentration-dependent curve, in presence of acetylcholine at EC20 (0.8-1.0 nM), CHO-K1 cells expressing hCHRM1, read-out: IP value
Experimental: Measurement of M1 Receptor Positive Allosteric Modulator (M1PAM) Activity
The activity of a test compound in the presence of acetylcholine at EC20 concentration (final concentration 0.8-1.0 nM), which affords an action corresponding to about 20% of the maximum activity, was measured as PAM activity. The method is as follows. CHO-K1 cells stably expressing a human M1 receptor (hCHRM1) were plated on a 384-well black clear bottom plate (BD Falcon) at 5,000 cells/well, and cultured in an incubator at 37° C., 5% CO2 for 1 day. The medium in the cell plate was removed, and a dye solution (prepared by adding Recording medium (DOJINDO LABORATORIES) to a final concentration of 1×concentration, Fluo-4 AM (DOJINDO LABORATORIES) to a final concentration of 2.5 μg/mL, Pluronic F127 (DOJINDO LABORATORIES) to a final concentration of 0.08%, and probenecid (DOJINDO LABORATORIES) to a final concentration of 1.25 mM to assay buffer (HBSS (Invitrogen), 20 mM HEPES (Invitrogen), 0.1% BSA (Wako Pure Chemical Industries, Ltd.))) was added at 30 μL/well. The cells were left standing in the incubator at 37° C., 5% CO2 for 30 min, and further left standing at room temperature for 30 min. A test compound prepared by diluting with assay buffer containing 3.2-4.0 nM acetylcholine was added at 10 μL/well, and the fluorescence was measured by FLIPRtetra (Molecular Devices) for 1 min every 1 second. With the definition that the amount of change in the fluorescence on addition of acetylcholine (final concentration 1 μM) is 100% and that on addition of DMSO instead of a test compound is 0%, the activity (%) of the test compound was calculated, and the inflection point in the concentration-dependent curve of the test compound was calculated as IP values.

Row | SMILES | activity (%) at 10 μM [%] | EC50 [nM]
1 | Cc1ccc(Cc2cc3c(cc2C)OCN([C@H]2CCCC[C@@H]2O)C3=O)cn1 (relative stereo) [Example 33, 3-(trans-2-hydroxycyclohexyl)-7-methyl-6-((6-methylpyridin-3-yl)methyl)-2,3-dihydro-4H-1,3-benzoxazin-4-one] | 104 | 39
2 | Cc1c(Cc2ccc(-n3cccn3)cc2)cc2c(c1F)OCN([C@H]1CCC[C@@H]1O)C2=O [Example 5, 8-fluoro-3-((1S,2S)-2-hydroxycyclopentyl)-7-methyl-6-(4-(1H-pyrazol-1-yl)benzyl)-2,3-dihydro-4H-1,3-benzoxazin-4-one] | 104 | 8.5
3 | COc1ccc(Cc2cc3c(c(C)c2C)OCN([C@H]2COCC[C@@H]2O)C3=O)cc1 (relative stereo) [Example 59, 1,5-anhydro-2,4-dideoxy-2-(6-(4-methoxybenzyl)-7,8-dimethyl-4-oxo-2H-1,3-benzoxazin-3(4H)-yl)-threo-pentitol] | 99 | 21
4 | Cc1c(Cc2ccc(Cl)nc2)cc2c(c1F)OCN([C@H]1CCCC[C@@H]1O)C2=O [Example 54, 6-((6-chloropyridin-3-yl)methyl)-8-fluoro-3-((1S,2S)-2-hydroxycyclohexyl)-7-methyl-2,3-dihydro-4H-1,3-benzoxazin-4-one] | 116 | 11
5 | Cn1cc(-c2ccc(Cc3cc4c(c5ccccc35)OCNC4=O)cn2)cn1 [Example 47, 6-((6-(1-methyl-1H-pyrazol-4-yl)pyridin-3-yl)methyl)-2,3-dihydro-4H-naphtho[2,1-e][1,3]oxazin-4-one] | 110 | 5.3
6 | COc1c(Cc2ccc(-n3ccnc3)nc2)cc2c(c1F)OCN([C@H]1CCC[C@@H]1O)C2=O (relative stereo) [Example 48, 8-fluoro-3-(trans-2-hydroxycyclopentyl)-6-((6-(1H-imidazol-1-yl)pyridin-3-yl)methyl)-7-methoxy-2,3-dihydro-4H-1,3-benzoxazin-4-one] | 106 | 7.4
7 | Cc1c(Cc2ccc(Cl)nc2)cc2c(c1C)OCN([C@H]1COCC[C@@H]1O)C2=O [Example 10, 1,5-anhydro-2-(6-((6-chloropyridin-3-yl)methyl)-7,8-dimethyl-4-oxo-2H-1,3-benzoxazin-3(4H)-yl)-2,4-dideoxy-L-threo-pentitol] | 109 | 9.1
8 | Cc1cc2c(cc1Cc1ccc(Cl)nc1)C(=O)N([C@H]1CCCC[C@@H]1O)CO2 (relative stereo) [Example 62, 6-((6-chloropyridin-3-yl)methyl)-3-(trans-2-hydroxycyclohexyl)-7-methyl-2,3-dihydro-4H-1,3-benzoxazin-4-one] | 91 | –
9 | Cc1ccc(Cc2cc3c(c(F)c2C)OCN([C@H]2CCC[C@@H]2O)C3=O)cn1 [Example 20, 8-fluoro-3-((1S,2S)-2-hydroxycyclopentyl)-7-methyl-6-((6-methylpyridin-3-yl)methyl)-2,3-dihydro-4H-1,3-benzoxazin-4-one] | 85 | 24
10 | C=Cc1ccc(Cc2cc3c(c4ccccc24)OCN([C@H]2COCC[C@@H]2O)C3=O)cn1 [Example 42, 1,5-anhydro-2,4-dideoxy-2-(4-oxo-6-((6-vinylpyridin-3-yl)methyl)-2H-naphtho[2,1-e][1,3]oxazin-3(4H)-yl)-L-threo-pentitol] | 124 | 2

Continued by falling EC50, values first:

Row | activity (%) at 10 μM [%] | EC50 [nM] | SMILES
11 | 93 | 96 | Cc1ccc(Cc2cc3c(c(Cl)c2C)OCN(CC2CCCO2)C3=O)cn1 (stereo not drawn) [Example 84, 8-chloro-7-methyl-6-((6-methylpyridin-3-yl)methyl)-3-(tetrahydrofuran-2-ylmethyl)-2,3-dihydro-4H-1,3-benzoxazin-4-one]
12 | 110 | 86 | Cc1ccc(Cc2cc3c(c(F)c2Cl)OCN([C@H]2CCC[C@@H]2O)C3=O)cn1 [Example 81, 7-chloro-8-fluoro-3-((1S,2S)-2-hydroxycyclopentyl)-6-((6-methylpyridin-3-yl)methyl)-2,3-dihydro-4H-1,3-benzoxazin-4-one]
13 | 97 | 78 | O=C1c2cc(CN3CCC(F)CC3)c3ccccc3c2OCN1[C@H]1CCC[C@@H]1O [Example 79, 6-((4-fluoropiperidin-1-yl)methyl)-3-((1S,2S)-2-hydroxycyclopentyl)-2,3-dihydro-4H-naphtho[2,1-e][1,3]oxazin-4-one]
14 | 105 | 53 | Cc1cc2c(cc1Cc1ccc(-c3cn(C)nn3)nc1)C(=O)N(CC1CCCO1)CO2 (stereo not drawn) [Example 71, 7-methyl-6-((6-(1-methyl-1H-1,2,3-triazol-4-yl)pyridin-3-yl)methyl)-3-(tetrahydrofuran-2-ylmethyl)-2,3-dihydro-4H-1,3-benzoxazin-4-one]
15 | 104 | 52 | N#CC1CCN(Cc2cc3c(c4ccccc24)OCN([C@H]2CCC[C@@H]2O)C3=O)CC1 [Example 70, 1-((3-((1S,2S)-2-hydroxycyclopentyl)-4-oxo-3,4-dihydro-2H-naphtho[2,1-e][1,3]oxazin-6-yl)methyl)piperidine-4-carbonitrile]
16 | 90 | 48 | Cc1ccc(Cc2cc3c(c4ccccc24)OCN(CC2CCCO2)C3=O)cn1 (stereo not drawn) [Example 68, 6-((6-methylpyridin-3-yl)methyl)-3-(tetrahydrofuran-2-ylmethyl)-2,3-dihydro-4H-naphtho[2,1-e][1,3]oxazin-4-one]
17 | 108 | 37 | Cc1ccc(Cc2cc3c(c(F)c2C)OCN([C@H]2COCC[C@@H]2O)C3=O)cn1 [Example 32, 1,5-anhydro-2,4-dideoxy-2-(8-fluoro-7-methyl-6-((6-methylpyridin-3-yl)methyl)-4-oxo-2H-1,3-benzoxazin-3(4H)-yl)-L-threo-pentitol]
18 | 89 | 15 | Cc1c(Cc2ccc(C#N)cc2)cc2c(c1F)OCN([C@H]1CCC[C@@H]1O)C2=O [Example 12, 4-((8-fluoro-3-((1S,2S)-2-hydroxycyclopentyl)-7-methyl-4-oxo-3,4-dihydro-2H-1,3-benzoxazin-6-yl)methyl)benzonitrile]
19 | 108 | 12 | Cc1cc2c(cc1Cc1ccc(-n3cccn3)nc1)C(=O)N([C@H]1CCCC[C@@H]1O)CO2 (relative stereo) [Example 36, 3-(trans-2-hydroxycyclohexyl)-7-methyl-6-((6-(1H-pyrazol-1-yl)pyridin-3-yl)methyl)-2,3-dihydro-4H-1,3-benzoxazin-4-one]
20 | 101 | 9.7 | Cc1c(Cc2ccc(-n3cccn3)nc2)cc2c(c1Cl)OCN([C@H]1CCC[C@@H]1O)C2=O (relative stereo) [Example 51, 8-chloro-3-(trans-2-hydroxycyclopentyl)-7-methyl-6-((6-(1H-pyrazol-1-yl)pyridin-3-yl)methyl)-2,3-dihydro-4H-1,3-benzoxazin-4-one]
21 | 120 | 8.6 | Cc1cc2c(cc1Cc1ccc(-n3cccn3)cc1)C(=O)N([C@H]1COCC[C@@H]1O)CO2 [Example 50, 1,5-anhydro-2,4-dideoxy-2-(7-methyl-4-oxo-6-(4-(1H-pyrazol-1-yl)benzyl)-2H-1,3-benzoxazin-3(4H)-yl)-L-threo-pentitol]
22 | 109 | 3.2 | O=C1c2cc(Cc3ccc(Cl)nc3)c3ccccc3c2OCN1[C@H]1COCC[C@@H]1O [Example 4, 1,5-anhydro-2-(6-((6-chloropyridin-3-yl)methyl)-4-oxo-2H-naphtho[2,1-e][1,3]oxazin-3(4H)-yl)-2,4-dideoxy-L-threo-pentitol]
23 | 88 | 1.5 | Cc1c(Cc2ccc(-n3ccnc3)nc2)cc2c(c1Cl)OCN([C@H]1CCC[C@@H]1O)C2=O (relative stereo) [Example 39, 8-chloro-3-(trans-2-hydroxycyclopentyl)-6-((6-(1H-imidazol-1-yl)pyridin-3-yl)methyl)-7-methyl-2,3-dihydro-4H-1,3-benzoxazin-4-one]
